Measurements reported in patent US20080207614A1, “QUINAZOLINE DERIVATIVES FOR THE TREATMENT AND PREVENTION OF DIABETES AND OBESITY” (SK CHEMICALS CO., LTD., priority 2004, published 2008).

Test system: C2C12 muscle cells
Test: Analysis of glucose absorption (2-deoxyglucose) in differentiated C2C12 muscle cells
Assay type: cell-based
Conditions: test materials 10 μM, times relative to control group
How it was run: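 Differentiated C2C12 myotubes (6 days in 1% serum) held 3 h in KRB with 5 mM glucose, then given test material at 10 μM. After 30 min, 0.2 μCi 2-deoxyglucose added for 20 min; uptake measured by radioactive counting of NaOH lysates.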

## OCCOCCNc1nc(C2CCCCC2)nc2ccccc12 [Compound 209, 2-[2-(2-Cyclohexylquinazolino-4-ylamino)-ethoxy]-ethanol]
  Glucose absorption: 1.1

## CCSc1nc(NC2CCCC2)c2ccccc2n1 [Compound 28, Cyclopentyl-(2-ethylsulfanylquinazolino-4-yl)-amine]
  Glucose absorption: 1.1

## c1ccc2c(NCc3ccc4c(c3)OCO4)nc(C3CCCCC3)nc2c1 [Compound 206, Benzo[1,3]dioxol-5-ylmethyl-(2-cyclohexylquinazolino-4-yl)-amine]
  Glucose absorption: 1.4

## c1ccc2c(NCc3ccc4c(c3)OCO4)nc(-c3ccncc3)nc2c1 [Compound 254, Benzo[1,3]dioxol-5-ylmethyl-(2-pyridino-4-ylquinazolino-4-yl)-amine]
  Glucose absorption: 1.4

## c1ccc(-c2nc(NCc3cccs3)c3ccccc3n2)cc1 [Compound 59]
  Glucose absorption: 1.2

## OCCNc1nc(C2CCCCC2)nc2ccccc12 [Compound 210, 2-(2-Cyclohexylquinazolino-4-ylamino)-ethanol]
  Glucose absorption: 0.9

## Clc1ccc(-c2nc(NCc3ccccc3)c3ccccc3n2)cc1 [Compound 259, Benzyl-[2-(4-chlorophenyl)-quinazolino-4-yl]-amine]
  Glucose absorption: 1.4

## CCc1ccc(Nc2nc(-c3ccccc3)nc3ccccc23)cc1 [Compound 75, (4-Ethyl-phenyl)-(2-phenylquinazolino-4-yl)-amine]
  Glucose absorption: 1.3

## Clc1ccc(-c2nc(NCCCCc3ccccc3)c3ccccc3n2)cc1 [Compound 264, [2-(4-Chlorophenyl)-quinazolino-4-yl]-(4-phenylbutyl)-amine]
  Glucose absorption: 1.1

## Clc1ccc(CNc2nc(-c3ccccc3)nc3ccccc23)cc1Cl [Compound 89, (3,4-Dichlorobenzyl)-(2-phenylquinazolino-4-yl)-amine]
  Glucose absorption: 1.4

## FC(F)(F)c1cccc(CNc2nc(-c3ccc(Cl)cc3)nc3ccccc23)c1 [Compound 262, [2-(4-Chlorophenyl)-quinazolino-4-yl]-(3-trifluoromethylbenzyl)-amine]
  Glucose absorption: 1.1

## CC(C)(C)c1nc(NCCO)c2ccccc2n1 [Compound 198, 2-(2-tert-Butylquinazolino-4-ylamino)-ethanol]
  Glucose absorption: 1.4

## Fc1cccc(CCNc2nc(Cc3ccccc3)nc3ccccc23)c1 [Compound 220, (2-Benzylquinazolino-4-yl)-[2-(3-fluorophenyl)-ethyl]-amine]
  Glucose absorption: 2.5

## OCCNc1nc(-c2ccc(Cl)cc2)nc2ccccc12 [Compound 270, 2-[2-(4-Chlorophenyl)-quinazolino-4-ylamino]-ethanol]
  Glucose absorption: 1.1

## COc1cc(OC)c(CNc2nc(Cc3ccccc3)nc3ccccc23)c(OC)c1 [Compound 335, (2-Benzylquinazolino-4-yl)-(2,4,6-trimethoxybenzyl)-amine]
  Glucose absorption: 1.1

## COc1ccc(Nc2nc(-c3ccccc3)nc3ccccc23)cc1 [Compound 70, (4-Methoxyphenyl)-(2-phenylquinazolino-4-yl)-amine]
  Glucose absorption: 1.0

## COc1cccc(CNc2nc(-c3ccccn3)nc3ccccc23)c1 [Compound 224, (3-Methoxybenzyl)-(2-pyridino-2-ylquinazolino-4-yl)-amine]
  Glucose absorption: 1.1

## c1ccc(Oc2ccccc2Nc2nc(-c3ccccc3)nc3ccccc23)cc1 [Compound 80, (2-Phenoxy-phenyl)-(2-phenylquinazolino-4-yl)-amine]
  Glucose absorption: 1.0

## COc1ccc(CNc2nc(Cc3ccccc3)nc3ccccc23)cc1 [Compound 213, (2-Benzylquinazolino-4-yl)-(4-methoxybenzyl)-amine]
  Glucose absorption: 1.4

## COc1cc(CNc2nc(-c3ccccc3)nc3ccccc23)cc(OC)c1 [Compound 92, (3,5-Dimethoxybenzyl)-(2-phenylquinazolino-4-yl)-amine]
  Glucose absorption: 1.4

## CCCCNc1nc(-c2ccccc2)nc2ccccc12 [Compound 56, Butyl-(2-phenylquinazolino-4-yl)-amine]
  Glucose absorption: 1.1

## Clc1ccc(-c2nc(NCc3cccc4ccccc34)c3ccccc3n2)cc1 [Compound 265, [2-(4-Chlorophenyl)-quinazolino-4-yl]-naphthaleno-1-ylmethylamine]
  Glucose absorption: 1.1

## CCSc1nc(NCCCN2CCOCC2)c2ccccc2n1 [Compound 36, (2-Ethylsulfanylquinazolino-4-yl)-(3-morpholino-4-ylpropyl)-amine]
  Glucose absorption: 1.4

## OCCNc1nc(-c2ccncc2)nc2ccccc12 [Compound 258, 2-(2-Pyridino-4-ylquinazolino-4-ylamino)-ethanol]
  Glucose absorption: 1.3

## Fc1cccc(CNc2nc(-c3ccccn3)nc3ccccc23)c1 [Compound 231, (3-Fluorobenzyl)-(2-pyridino-2-ylquinazolino-4-yl)-amine]
  Glucose absorption: 1.2

## c1ccc(-c2nc(NCC3CCCCC3)c3ccccc3n2)cc1 [Compound 132, Cyclohexylmethyl-(2-phenylquinazolino-4-yl)-amine]
  Glucose absorption: 1.3

## c1ccc(-c2nc(NCCN3CCCC3)c3ccccc3n2)cc1 [Compound 100, (2-Phenylquinazolino-4-yl)-(2-pyrrolidino-1-ylethyl)-amine]
  Glucose absorption: 1.4

## CC(C)(C)c1nc(NCc2ccc3c(c2)OCO3)c2ccccc2n1 [Compound 194, Benzo[1,3]dioxol-5-ylmethyl-(2-tert-butylquinazolino-4-yl)-amine]
  Glucose absorption: 1.4

## COc1cccc(CNc2nc(-c3ccccc3)nc3ccccc23)c1OC [Compound 93, (2,3-Dimethoxybenzyl)-(2-phenylquinazolino-4-yl)-amine]
  Glucose absorption: 1.1

## c1ccc(-c2nc(NC3CCCC3)c3ccccc3n2)cc1 [Compound 95, Cyclopentyl-(2-phenylquinazolino-4-yl)-amine]
  Glucose absorption: 1.2

## CCSc1nc(NC2CCCCC2)c2ccccc2n1 [Compound 27, Cyclohexyl-(2-ethylsulfanylquinazolino-4-yl)-amine]
  Glucose absorption: 1.0

## CCSc1nc(NCc2cc(OC)cc(OC)c2)c2ccccc2n1 [Compound 38, (3,5-Dimethoxybenzyl)-(2-ethylsulfanylquinazolino-4-yl)-amine]
  Glucose absorption: 1.5

## COc1cc(OC)c(CNc2nc(-c3ccccc3)nc3ccccc23)c(OC)c1 [Compound 337, (2-Phenylquinazolino-4-yl)-(2,4,6-trimethoxybenzyl)-amine]
  Glucose absorption: 1.3

## OCCNc1nc(Cc2ccccc2)nc2ccccc12 [Compound 222, 2-(2-Benzylquinazolino-4-ylamino)-ethanol]
  Glucose absorption: 1.2

## COc1cccc(CNc2nc(-c3ccncc3)nc3ccccc23)c1 [Compound 248, (3-Methoxybenzyl)-(2-pyridino-4-ylquinazolino-4-yl)-amine]
  Glucose absorption: 1.4

## c1ccc(CNc2nc(-c3ccncc3)nc3ccccc23)cc1 [Compound 247, Benzyl-(2-pyridino-4-ylquinazolino-4-yl)-amine]
  Glucose absorption: 1.3

## c1ccc(CCCCNc2nc(C3CCCCC3)nc3ccccc23)cc1 [Compound 204, (2-Cyclohexylquinazolino-4-yl)-(4-phenylbutyl)-amine]
  Glucose absorption: 1.2

## Fc1cccc(CCNc2nc(-c3ccc(Cl)cc3)nc3ccccc23)c1 [Compound 268, [2-(4-Chlorophenyl)-quinazolino-4-yl]-[2-(3-fluorophenyl)-ethyl]-amine]
  Glucose absorption: 1.1

## c1ccc(-c2nc(NCCN3CCNCC3)c3ccccc3n2)cc1 [Compound 160, (2-Phenylquinazolino-4-yl)-(2-piperazino-1-ylethyl)-amine]
  Glucose absorption: 2.5

## O=C1CCCN1CCCNc1nc(-c2ccccc2)nc2ccccc12 [Compound 150, 1-[3-(2-Phenylquinazolino-4-ylamino)-propyl]-pyrrolidino-2-one]
  Glucose absorption: 2.6

## c1ccc(CCNc2nc(-c3ccncc3)nc3ccccc23)cc1 [Compound 251, Phenethyl-(2-pyridino-4-ylquinazolino-4-yl)-amine]
  Glucose absorption: 0.6

## CCSc1nc(NCC(C)C)c2ccccc2n1 [Compound 21, (2-Ethylsulfanylquinazolino-4-yl)-isobutylamine]
  Glucose absorption: 1.2

## O=[N+]([O-])c1ccc(CONc2nc(-c3ccccc3)nc3ccccc23)cc1 [Compound 161, O-(4-Nitrobenzyl)-N-(2-phenylquinazolino-4-yl)-hydroxylamine]
  Glucose absorption: 1.1

## COc1cc(CNc2nc(Cc3ccccc3)nc3ccccc23)cc(OC)c1OC [Compound 332, (2-Benzylquinazolino-4-yl)-(3,4,5-trimethoxybenzyl)-amine]
  Glucose absorption: 1.1

## c1ccc(-c2nc(NCc3ccc4c(c3)OCO4)c3ccccc3n2)cc1 [Compound 65, Benzo[1,3]dioxol-5-ylmethyl-(2-phenylquinazolino-4-yl)-amine]
  Glucose absorption: 1.4

## c1ccc(-c2nc(NCCCN3CCOCC3)c3ccccc3n2)cc1 [Compound 156, (3-Morpholino-4-ylpropyl)-(2-phenylquinazolino-4-yl)-amine]
  Glucose absorption: 1.1

## c1ccc(Oc2cccc(Nc3nc(-c4ccccc4)nc4ccccc34)c2)cc1 [Compound 81, (3-Phenoxy-phenyl)-(2-phenylquinazolino-4-yl)-amine]
  Glucose absorption: 0.9

## Clc1ccc(Nc2nc(-c3ccccc3)nc3ccccc23)cc1 [Compound 162, (4-Chlorophenyl)-(2-phenylquinazolino-4-yl)-amine]
  Glucose absorption: 1.3

## CC(C)(C)c1nc(NCc2cccc(C(F)(F)F)c2)c2ccccc2n1 [Compound 190, (2-tert-Butylquinazolino-4-yl)-(3-trifluoromethylbenzyl)-amine]
  Glucose absorption: 1.2

## CCSc1nc(NCCOCCO)c2ccccc2n1 [Compound 50, 2-[2-(2-Ethylsulfanylquinazolino-4-ylamino)-ethoxy]-ethanol]
  Glucose absorption: 1.2

## C=CCNc1nc(-c2ccccc2)nc2ccccc12 [Compound 97, Allyl-(2-phenylquinazolino-4-yl)-amine]
  Glucose absorption: 1.0
